Measured values published in patent US9062095B2, “Mutant double cyclized receptor peptides inhibiting β1-adrenoceptor antibodies” (JULIUS-MAXIMILIANS-UNIVERSTITAT-WURZBURG, priority 2007, dated 2015).
Positions of bridges follow the written chain, without caps; N, C: chain ends.

How the values were obtained:
[1] = tested on: anti-beta1-ECII antibody-secreting cells (ASC); experiment: ELISPOT-assay with B-cells from bone marrow or spleen of prophylactically treated rats; type: in vivo, rat; conditions: prophylactically treated versus untreated immunized rats, n=3-4 (FIG. 13)
Method: Cys/Ser, horizontally hatched columns). For the assays, ELIspot plates were coated overnight with the specific antigen (GST/beta1-ECII-FP) in 0.05 mol/1 Tris buffer, pH 9.4.; then the plates were washed 3 times and blocked with BSA for 3 hours at 37° C. Subsequently, the plates were incubated overnight at 37° C. with B-cells from either spleen or bone marrow (cultured in RPMI 1640/X-VIVO-15 medium supplemented with 10% fetal calf serum (FCS)) with 1×10^6 to 1×10^3 cells per well. After 12 hours the B-cells were discarded and the plates with the B-cell secreted IgG bound were washed several times (PBS/0.5° A) Tween) before the addition of alkaline phos-phatase conjugated secondary anti-rat IgG (0.3 μg/ml) to detect bound rat IgG. Then the plates were incubated for another 3 hours at 37° C., washed several times with PBS/0.5% Tween, and developed using LMP/BICP 5:1 (1 ml per well; “LMP” means low melting agarose, and “BICP” means 5-bromo-4-chloro-3-indolyl phosphate p-toluidine salt, a blue-colored dye) allowing for a quantification of the blue spots obtained, with each spot representing an antigen-specific IgG secreting spleen or bone-marrow cell.
This finding was confirmed by ELIspot analysis of bone marrow and spleen cell preparations of selected cyclopeptide-treated versus untreated immunized rats (n=3).

anti-β1-ECII antibodies = experiment: ELISA-competition assay: peptide preincubated with sera/IgG of immunized antibody-positive rats, linear 25AA Cys/Cys-peptide as antigen; type: binding, rat; conditions: for decrease in circulating free anti-beta1-ECII antibodies: n=6 sera (FIG. 11)
Method in brief: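 Rat sera or IgG fractions from immunized anti-β1-ECII antibody-positive rats preincubated 12 h at 4° C (rotating) with linear or cyclic β1-ECII peptides at fold molar excess (1:1 peptide:IgG assumed). Residual binding measured by ELISA on linear 25AA Cys/Cys-peptide antigen, given as % blocked versus non-blocked reactivity.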

[2] = tested on: rats with antibody-induced immune-cardiomyopathy; experiment: in vivo therapy study: cardioprotective effect (echocardiography, hemodynamics, organ weights); parameters: species or system rat
Text: FIG. 17.A is a diagram showing the time course (month 0 to 20) of the internal end-systolic and end-diastolic left ventricular diameters (LVES, LVED) of GST/β1-ECII-immunized un-treated (black circles) versus GST/β1-ECII-immunized animals treated with the indicated various cyclopeptides (see legend) as determined by echocardiography (echocardiographic system: Visual Sonics, Vevo 770 (version V2.2.3), equipped with a 15-17.5 MHz transducer), whereby LVES/LVED is left ventricular end-systolic diameter/left ventricular end-diastolic diameter.
FIG. 17.B is a similar diagram showing the time course (month 0 to 20) of the internal end-systolic and end-diastolic left ventricular diameters (LVES, LVED) of GST/β1-ECII-immunized untreated (black circles) versus GST/β1-ECII-immunized animals, treated with different concentrations of the 18AA Cys/Ser cyclopeptide mutant (see legend).
FIG. 19A is a diagram depicting the time course (month 0 to 20) of the “Cardiac index” (CI) in ml/min/g (body weight) as determined by echocardiography (echocardiographic system see legend to FIG. 17a.).
The latter doses were almost equally efficient in terms of both, neutralization of circulating receptor antibodies (FIGS. 16b and c), and reversal of antibody-induced cardiomyopathic features (FIGS. 17b, 19b, 20, and 21b).

For “Cyclo-Ala-Asp-Glu-Ala-Arg-Arg-Cys-Tyr-Asn-Asp-Pro-Lys-Cys-Ser-Asp-Phe-Val-Gln (cyclo(ADEARRCYNDPKCSDFVQ); disulfide 7-13; SMILES CC(C)[C@@H]1NC(=O)[C@H](Cc2ccccc2)NC(=O)[C@H](CC(=O)O)NC(=O)[C@H](CO)NC(=O)[C@@H]2CSSC[C@H](NC(=O)[C@H](CCCNC(=N)N)NC(=O)[C@H](CCCNC(=N)N)NC(=O)[C@H](C)NC(=O)[C@H](CCC(=O)O)NC(=O)[C@H](CC(=O)O)NC(=O)[C@H](C)NC(=O)[C@H](CCC(N)=O)NC1=O)C(=O)N[C@@H](Cc1ccc(O)cc1)C(=O)N[C@@H](CC(N)=O)C(=O)N[C@@H](CC(=O)O)C(=O)N1CCC[C@H]1C(=O)N[C@@H](CCCCN)C(=O)N2) [18AA Cys/Ser mutant (Gln-)cyclopeptide, disulphide bond Cys7-Cys13, ring closure Ala1-Gln18]”, the “number of specific anti-beta1-ECII antibody-secreting cells (ASC) in spleen and bone marrow” value [1] was “significant decrease”, the “decrease in circulating free anti-beta1-ECII antibodies” value (anti-β1-ECII antibodies; 8-fold molar excess of peptide) was 53% and the “decrease in circulating free anti-beta1-ECII antibodies” value (anti-β1-ECII antibodies; 20-fold molar excess of peptide) was 66%. For the same substance, the “decrease in circulating free anti-beta1-ECII antibodies” value (anti-β1-ECII antibodies; 80-fold molar excess of peptide) was “about 85%”, the “blocking-efficiency versus unblocked sera” value (anti-β1-ECII antibodies; n=6 sera, incubation 12-14 h, 4° C., mean ±SEM (FIG. 27)) was 60.0±8.3% and the “fraction of rat sera blocked by the peptide” value (anti-β1-ECII antibodies; n=69 sera, (Gln-)cyclopeptide mutants (FIG. 10), Cys/Ser = blocked by it alone (n=64), Ser/Cys = sera blocked by both (n=5)) was “About 93%”. The “blocking efficiency (% of blocked versus non-blocked ELISA reactivity)” value (anti-β1-ECII antibodies; type1 sera (93%, n=64 of 69), FIG. 9 upper panel, ±SEM) was 68±3%, the “blocking capacity (% of blocked versus non-blocked ELISA reactivity)” value (anti-β1-ECII antibodies; type 2 sera (7%, n=5 of 69), FIG. 9 lower panel, ±SEM) was 50±8% and the “achieved cardioprotective effect compared with 1.0 or 2.0 mg/kg” value ([2]; 0.25 mg/kg Bw, repeated injections every 4 weeks) was “clearly less efficient”. For the same substance, the “cardioprotective effects compared with 1.0 or 2.0 mg/kg” value ([2]; 4.0 mg/kg body weight, repeated injections every 4 weeks) was “did not result in higher efficiency” and the “reversal of antibody-induced cardiomyopathic features” value ([2]; 1.0 or 2.0 mg/kg Bw (FIGS. 17B, 19B, 20, 21B)) was “best cardioprotection”.
